Read-outs that look alike come from different tables or passages of the source.
B1: Bet v 1d: recombinant hypoallergenic isoform of the major birch pollen allergen Bet v 1 (UniProt P43177) (protein, UniProt P43177 2-160, looked up)
Major pollen allergen Bet v …: GVFNYEIETTSVIPAARLFKAFILDGDNLVPKVAPQAISSVENIEGNGGPGTIKKINFPEGFPFKYVKDRVDEVDHTNFKYNYSVIEGGPVGDTLEKISNEIKIVATPDGGCVLKISNKYHTKGNHEVKAEQVKASKEMGETLLRAVESYLLAHSDAYN

Columns and labels:
Bet v 1a [1] = molecular target: T1, Bet v 1a (Betula pendula, UniProt P15494); test: 1H-15N HSQC NMR titration (chemical shift perturbation) of 15N-Bet v 1a; assay type: binding, Betula verrucosa; details: Bet v 1a
T1 construct: made in house
Method: (§1) All NMR experiments were performed at 298 K in 50 mM sodium phosphate buffer, 50 mM NaCl, pH 7.0, 10% deuterium oxide (^2H2O) with ^15N-uniformly labelled Bet v 1 isoforms using Bruker Avance 700 MHz and Avance 800 MHz spectrometers with cryogenically cooled triple-resonance probes equipped with pulsed field-gradient capabilities. NMR data were processed using NMRPipe and visualized with NMRViewJ [89]. Three-dimensional ^15N-edited NOESY (nuclear Overhauser enhancement spectroscopy, mixing times 120 ms) experiments to assign chemical shifts were obtained with 500 μM ^15N-labeled samples of Bet v 1 isoform d or m and yielded 91% of assigned residues for Bet v 1d and 89% for Bet v 1m. The sequence-specific assignments of the amide resonances of Bet v 1a are reported elsewhere.
(§2) Interaction of Q3OS with the Bet v 1 isoforms was measured by incubating 700 μM Q3OS with 50 μM of each ^15N-labeled Bet v 1 isoform in 50 mM sodium phosphate, 50 mM NaCl buffer, pH 7.0.
(§3) For titration experiments all other flavonoids were dissolved in deuterated DMSO, while glucose and galactose were dissolved in 50 mM sodium phosphate buffer, 50 mM NaCl, pH 7.0, 10% deuterium oxide and titrated stepwise to a final excess of up to 17-fold to protein samples (ca. 100 μM). […] CSPs for ligand binding were calculated based on Eq (2): […] (2) ΔδHN and ΔδN, chemical shift differences of amide proton and nitrogen resonances, respectively, in ppm.
(§4) K d values for flavonoid binding were determined with NMRViewJ [89]. All analysable amino acid residues that were unaffected by DMSO addition and showing CSPs > 0.08 ppm were fitted to a quadratic binding curve with default settings, and an average K d app was calculated (Table 1 and S1–S3 Tables). The CSPs of all residues showing CSPs > 0.04 ppm were mapped either on models of Bet v 1d and Bet v 1m or on the Bet v 1a structure (pdb code 1BV1, [29]).

Bet v 1m [2] = molecular target: T2, Bet v 1m (Betula pendula, UniProt P43186); test: 1H-15N HSQC NMR titration (chemical shift perturbation) of 15N-Bet v 1m; assay type: binding, Betula verrucosa; details: NMR, average of all analysable residues with CSPs > 0.08 ppm, ± standard deviation
T2 construct: made in house
Method: as §1, §2, §3, §4

Bet v 1d = molecular target: T3, Bet v 1d (Betula pendula, UniProt P43177); test: 1H-15N HSQC NMR titration (chemical shift perturbation) of 15N-Bet v 1d; assay type: binding, Betula verrucosa
T3 construct: made in house
Method: as §1, §2, §3, §4

[3] = test system: serum IgE binding to surface-coated Bet v 1a, Bet v 1d and Bet v 1m; test: Indirect ELISA for IgE binding to Bet v 1 isoforms; design: species or system human
Source text: (§5) Fifteen sera of birch pollen-allergic subjects were collected, tested, and pooled according to the guideline of the European Medicines Agency (EMEA/CHMP/BWP/304831/2007). The serum pool is routinely used for batch-release testing of birch pollen-derived allergenic products at the Paul-Ehrlich-Institut. The same serum pool was used for both, ELISA and mediator release assays.
For IgE-ELISA experiments, Maxisorp plates (Nunc via Fisher Scientific) were coated overnight at room temperature with 50 ng/100 μl recombinant Bet v 1 isoforms a, d, or m with a 5-fold molar excess of quercetin-3-O-sophorose, rutin, quercetin, quercetin-3-O-glucoside, quercetin-3-O-galactoside, or sophorose, respectively, in phosphate-buffered saline (PBS). After blocking with PBS containing 2% bovine serum albumin (BSA) these plates and an uncoated control were incubated with a dilution series of a serum pool of birch-pollen allergic subjects for 1 h at room temperature with PBS containing 0.05% Tween 20 and 0.1% BSA. Allergen-specific human IgE was detected with a horseradish peroxidase-conjugated mouse anti-human IgE antibody (Clone B3102E8, Southern biotech via Biozol, Eching, Germany) diluted 1:1000. 3,3′,5,5′-tetramethylbenzidine (Roth, Karlsruhe) was used as substrate for horseradish peroxidase, and the absorbance at 450 nm was measured after stopping the reaction with 25% H2SO4.

[4] = test system: humanized rat basophil leukemia (RBL) cells; test: β-Hexosaminidase release (mediator release) assay; assay type: cell-based
Method: as §5
The mediator release assay was performed according to an established protocol. […] After washing, cells were stimulated with serial dilutions of Bet v 1 isoforms a, d, or m in Tyrode's buffer containing […]. For complex formation, the Bet v 1 isoforms were incubated overnight with a 5-fold molar excess of Q3OS, rutin, quercetin, Q3OGlc, Q3OGal, or sophorose, respectively, before stimulating the cells. Degranulation was quantified by photometric measurement of β-hexosaminidase activity in the culture supernatants. The percentage of β-hexosaminidase activity relative to cells lysed with Triton X-100 (Sigma-Aldrich, Steinheim, Germany) was calculated and corrected for spontaneous release (sensitized cells without allergen).

[5] = UV/VIS absorption spectra of unbound flavonoids; assay type: physicochemical; details: pH 7.0
Method: All flavonoids and Bet v 1 isoforms were dissolved in 50 mM sodium phosphate, 50 mM NaCl, 10% (v/v) DMSO, pH 7.0, to a final concentration of 10 to 20 μM in 500 μl. Absorption spectra from 200–800 nm were recorded at 25°C in a 1 cm quartz cuvette (Hellma GmbH) using a 8453 UV-visible spectrophotometer (Agilent).

Bet v 1m [6] = molecular target: T2, Bet v 1m; test: 1H-15N HSQC NMR titration (chemical shift perturbation) of 15N-Bet v 1m; assay type: binding, Betula verrucosa; details: 1H-15N HSQC titration, up to 15-fold excess
Bet v 1a [7] = molecular target: T1, Bet v 1a; details: Fluorescence, read-out: Dissociation constant Kd; cited from earlier work
[8] = 5-fold molar excess of ligand, isoforms a, d, m

T1 sequence (P15494 whole entry): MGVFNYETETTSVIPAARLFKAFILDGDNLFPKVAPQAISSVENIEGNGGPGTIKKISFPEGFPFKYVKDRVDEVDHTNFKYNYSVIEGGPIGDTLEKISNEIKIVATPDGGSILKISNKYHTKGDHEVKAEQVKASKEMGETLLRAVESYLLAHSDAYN
T3 sequence (P43177 whole entry): as the sequence (P15494 whole entry) above, with T8I, F31V, S58N, I92V, S113C, I114V, D126N counted along it
T2 sequence (P43186 whole entry): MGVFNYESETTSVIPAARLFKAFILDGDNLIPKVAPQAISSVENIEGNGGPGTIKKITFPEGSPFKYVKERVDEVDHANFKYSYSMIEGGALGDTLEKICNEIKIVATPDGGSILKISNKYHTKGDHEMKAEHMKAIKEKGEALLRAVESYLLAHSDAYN

Row | Molecule | Kd per residue (Bet v 1a [1]; one value per residue with Δδnorm > 0.08 ppm (residue named left of the cell), Int. Ex. = intermediate exchange) | Kd (Bet v 1a [1]; NMR, average of all analysable residues with CSPs > 0.08 ppm, ± standard deviation, read-out: Dissociation constant Kd (averaged Kd app)) | Dissociation constant Kd (averaged Kd app) (Bet v 1m [2]) | binding to Bet v 1d (in words) (Bet v 1d; 1H-15N HSQC titration, up to 15-fold excess) | Dissociation constant Kd (averaged Kd app) (Bet v 1d; NMR, Bet v 1d, average of all analysable residues with CSPs > 0.08 ppm, ± standard deviation) | influence of ligand on IgE binding of Bet v 1 isoforms [3, 8] | influence of ligand on mediator release induced by Bet v 1 isoforms [4, 8] | Absorption maxima, Flavonoid [5] | binding to Bet v 1m (in words) (Bet v 1m [6]) | Kd (Bet v 1a [7]) | IgE-binding capacity ([3]; absence of ligands, pool serum of birch pollen-allergic subjects) | shift to higher concentration for half-maximum release of β-hexosaminidase in comparison to the other isoforms ([4]; absence of ligands)
1 | O=c1c(O[C@@H]2O[C@H](CO)[C@@H](O)[C@H](O)[C@H]2O[C@@H]2O[C@H](CO)[C@@H](O)[C@H](O)[C@H]2O)c(-c2ccc(O)c(O)c2)oc2cc(O)cc(O)c12 [Q3OS, quercetin-3-O-sophoroside] | Int./Slow Ex. | < 1000 nM | No binding | did not produce significant CSPs | No binding | does not significantly influence | does not significantly influence | 358 nm | did not lead to significant CSPs | 570 nM |  | 
2 | B1 |  |  |  |  |  |  |  |  |  |  | only marginal | approximately 10 fold

Reference: paper PMC4456386, “Ligand Recognition of the Major Birch Pollen Allergen Bet v 1 is Isoform Dependent” (PLoS ONE, 2015)
